Measurements from patent US9604975B2, “Indolyl-pyridone derivatives having checkpoint kinase 1 inhibitory activity” (Vernalis (R&D) Ltd., priority 2009, dated 2017).

Key:
[1] = test system: HT29 cells; experiment: CHK1 Cellular Assay - Gemcitabine EC50 Assay; type: cell-based; settings: for EC50: HT29 cells, in the presence of gemcitabine at 10 nM, 72 hours, SRB staining, read-out: CHK1 Cellular Activity (EC50 range)
Description: The gemcitabine EC50 assay was developed as a rapid method for screening CHK1 inhibitors to determine their relative cell activity. This assay utilises a feature of the effect of CHK1 inhibitors on gemcitabine toxicity. In the absence of a CHK1 inhibitor, gemcitabine acts predominantly as an anti-metbolite and therefore induces very little cell death, even at high concentrations. This can be as high as 70-80% survival at concentrations in excess of 1 μM. However, in the presence of a CHK1 inhibitor, the mechanism of action of gemcitabine switches to a more classical cytotoxic mode of action. For example, the fraction of cells surviving can be reduced to around 30% and below. Concentrations of gemcitabine can be selected that in the absence of a CHK1 inhibitor, have no effect on cell survival but in the presence of a CHK1 inhibitor are highly cytotoxic. 10000 HT29 cells were plated per well of a 96 well plate and allowed to attach at 37° C. in a 5% CO2 humidified incubator for 18 hours. CHK1 inhibitors were then titrated in the presence of 10, 15 and 20 nM gemcitabine for 72 hours and the EC50 determined by staining with sulforhodamine B (SRB) and determining the absorbance at 540 nm.

[2] = biological target: T1, CHK1 (Homo sapiens, UniProt O14757); experiment: CHK1 Enzyme Assay (phosphorylation of Chktide peptide, 33P-ATP filter assay); type: biochemical; settings: 12.5 nM His-CHK1, 0.01 mM ATP, 40 minutes at 30° C.; read-out: CHK1 Enzyme Activity (IC50 range)
T1 construct: His; purchased Invitrogen
T1 sequence (O14757 1-476): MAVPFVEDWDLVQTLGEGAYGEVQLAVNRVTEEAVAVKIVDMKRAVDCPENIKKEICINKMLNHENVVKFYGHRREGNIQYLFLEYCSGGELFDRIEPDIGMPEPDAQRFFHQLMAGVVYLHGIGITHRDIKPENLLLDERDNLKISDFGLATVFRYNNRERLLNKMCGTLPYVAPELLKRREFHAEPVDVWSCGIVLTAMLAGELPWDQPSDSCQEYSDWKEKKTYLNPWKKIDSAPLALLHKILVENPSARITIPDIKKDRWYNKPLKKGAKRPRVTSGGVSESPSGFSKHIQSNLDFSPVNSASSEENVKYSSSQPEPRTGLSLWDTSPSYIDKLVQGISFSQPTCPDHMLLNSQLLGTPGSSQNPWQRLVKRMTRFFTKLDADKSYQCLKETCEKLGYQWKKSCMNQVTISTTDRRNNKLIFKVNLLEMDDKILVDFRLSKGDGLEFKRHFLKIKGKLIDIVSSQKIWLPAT
How it was run: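 Filter-binding radiometric readout of 33P incorporation into Chktide (14.8 μM), after a 40 min, 30 °C reaction at pH 7.5 (50 mM Hepes-NaOH, 0.1 mg/mL BSA). The reaction contained 12.5 nM His-tagged CHK1, inhibitor and 0.01 mM cold ATP plus labelled ATP.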

EC50 [1] [nM]	IC50 [2] [nM]	Structure (SMILES)	survival ([1]; gemcitabine in the absence of a CHK1 inhibitor, concentrations in excess of 1 μM)
< 100	< 100	C[C@@H]1CN(Cc2ccc3[nH]c(-c4cc(NC(=O)c5cnn(Cc6ccccc6)c5)c[nH]c4=O)cc3c2)C[C@H](C)O1 [Example 71, 1-Benzyl-1H-pyrazole-4-carboxylic acid {5-[5-(cis-2,6-dimethyl-morpholin-4-ylmethyl)-1H-indol-2-yl]-6-oxo-1,6-dihydro-pyridin-3-yl}-amide]	
		Nc1ccn([C@@H]2O[C@H](CO)[C@@H](O)C2(F)F)c(=O)n1 [gemcitabine, reference compound]	70-80%
< 100	< 100	CCN(CC)CC(C)(C)COc1ccc2[nH]c(-c3cc(NC(=O)c4cnn(Cc5ccccc5)c4)c[nH]c3=O)cc2c1 [Example 178, 1-Benzyl-1H-pyrazole-4-carboxylic acid {5-[5-(3-diethylamino-2,2-dimethyl-propoxy)-1H-indol-2-yl]-6-oxo-1,6-dihydro-pyridin-3-yl}-amide]	
< 100	< 100	CC(C)(COc1ccc2[nH]c(-c3cc(NC(=O)c4cnn(Cc5ccccc5)c4)c[nH]c3=O)cc2c1)CN1CCCC1 [Example 180, 1-Benzyl-1H-pyrazole-4-carboxylic acid {5-[5-(2,2-dimethyl-3-pyrrolidin-1-yl-propoxy)-1H-indol-2-yl]-6-oxo-1,6-dihydro-pyridin-3-yl}-amide]	
	< 100	CC1CCN(Cc2ccc3[nH]c(-c4cc(NC(=O)c5cnn([C@@H](C)c6ccccc6)c5)c[nH]c4=O)cc3c2)CC1 [Example 165, 1-((S)-1-Phenyl-ethyl)-1H-pyrazole-4-carboxylic acid {5-[5-(4-methyl-piperidin-1-ylmethyl)-1H-indol-2-yl]-6-oxo-1,6-dihydro-pyridin-3-yl}-amide]	
	< 100	O=C(Nc1cnn(Cc2ccccc2)c1)c1c[nH]c(=O)c(-c2cc3cc(CN4CCNCC4)ccc3[nH]2)c1 [Example 16, 6-oxo-5-(5-piperazin-1-ylmethyl-1H-indol-2-yl)-1,6-dihydro-pyridine-3-carboxylic acid (1-benzyl-1H-pyrazol-4-yl)-amide]	
	< 100	Cc1ccc(Cn2cc(C(=O)Nc3c[nH]c(=O)c(-c4cc5cc(CN6CCC(CO)CC6)ccc5[nH]4)c3)cn2)cc1 [Example 39, 1-(4-Methyl-benzyl)-1H-pyrazole-4-carboxylic acid {5-[5-(4-hydroxymethyl-piperidin-1-ylmethyl)-1H-indol-2-yl]-6-oxo-1,6-dihydro-pyridin-3-yl}-amide]	
	< 100	O=C(Nc1c[nH]c(=O)c(-c2cc3cc(CN4CCCCC4)ccc3[nH]2)c1)c1cnn(Cc2ccc(Cl)cc2)c1 [Example 44, 1-(4-Chloro-benzyl)-1H-pyrazole-4-carboxylic acid [6-oxo-5-(5-piperidin-1-ylmethyl-1H-indol-2-yl)-1,6-dihydro-pyridin-3-yl]-amide]	
	< 100	CN(C)CCCOc1ccc2[nH]c(-c3cc(NC(=O)c4cnn(Cc5ccc(C(C)(C)C)cc5)c4)c[nH]c3=O)cc2c1 [Example 156, 1-(4-tert-butylbenzyl)-1H-pyrazole-4-carboxylic acid {5-[5-(3-dimethylaminopropoxy)-1H-indol-2-yl)-6-oxo-1,6-dihydropyridin-3-yl}-amide]	
	100 to 500	C[C@@H](c1ccccc1)n1cc(C(=O)Nc2c[nH]c(=O)c(-c3cc4ccccc4[nH]3)c2)cn1 [Example 160, 1-((S)-1-Phenyl-ethyl)-1H-pyrazole-4-carboxylic acid [5-(1H-indol-2-yl)-6-oxo-1,6-dihydro-pyridin-3-yl]-amide]	
	< 100	O=C(Nc1c[nH]c(=O)c(-c2cc3cc(CN4CCCC4)ccc3[nH]2)c1)c1cnn(Cc2ccc(Cl)cc2)c1 [Example 55, 1-(4-Chloro-benzyl)-1H-pyrazole-4-carboxylic acid [6-oxo-5-(5-pyrrolidin-1-ylmethyl-1H-indol-2-yl)-1,6-dihydro-pyridin-3-yl]-amide]	
	< 100	CCc1cccc(Cn2cc(C(=O)Nc3c[nH]c(=O)c(-c4cc5cc(OCCCN6CCN(C)CC6)ccc5[nH]4)c3)cn2)c1 [Example 127, 1-(3-Ethyl-benzyl)-1H-pyrazole-4-carboxylic acid (5-{5-[3-(4-methyl-piperazin-1-yl)-propoxy]-1H-indol-2-yl}-6-oxo-1,6-dihydro-pyridin-3-yl)-amide]	
	< 100	CN(C)CCOc1ccc2[nH]c(-c3cc(NC(=O)c4cnn(Cc5ccccc5)c4)c[nH]c3=O)cc2c1 [Example 142, 1-Benzyl-1H-pyrazole-4-carboxylic acid {5-[5-(2-dimethylamino-ethoxy)-1H-indol-2-yl]-6-oxo-1,6-dihydro-pyridin-3-yl}-amide]	
	500 to 1500	Cc1ccccc1Cn1cc(NC(=O)c2c[nH]c(=O)c(-c3cc4ccccc4[nH]3)c2)cn1 [Example 3, 5-(1H-Indol-2-yl)-6-oxo-1,6-dihydro-pyridine-3-carboxylic acid [1-(2-methyl-benzyl)-1H-pyrazol-4-yl]-amide]	
	< 100	CN1CCN(c2ccc3[nH]c(-c4cc(NC(=O)c5cnn(Cc6ccc(F)cc6)c5)c[nH]c4=O)cc3c2)CC1 [Example 114, 1-(4-Fluoro-benzyl)-1H-pyrazole-4-carboxylic acid {5-[5-(4-methyl-piperazin-1-yl)-1H-indol-2-yl]-6-oxo-1,6-dihydro-pyridin-3-yl}-amide]	
	< 100	O=C(Nc1cnn(Cc2ccc(F)c(F)c2)c1)c1c[nH]c(=O)c(-c2cc3cc(CN4CCN(CCO)CC4)ccc3[nH]2)c1 [Example 105, 5-{5-[4-(2-Hydroxyethyl)-piperazin-1-ylmethyl]-1H-indol-2yl}-6-oxo-1,6-dihydropyridine-3-carboxylic acid[1-(3,4-difluorobenzyl)-1H-pyrazol-4-yl]-amide]	
	< 100	CS(=O)(=O)CCNCc1ccc2[nH]c(-c3cc(NC(=O)c4cnn(Cc5ccccc5)c4)c[nH]c3=O)cc2c1 [Example 68]	
	< 100	O=C(Nc1c[nH]c(=O)c(-c2cc3ccccc3[nH]2)c1)c1cnn(Cc2cccc(F)c2)c1 [Example 22, 1-(3-Fluoro-benzyl)-1H-pyrazole-4-carboxylic acid [5-(1H-indol-2-yl)-6-oxo-1,6-dihydro-pyridin-3-yl]-amide]	
	< 100	O=C(Nc1c[nH]c(=O)c(-c2cc3cc(CN4CCC(F)CC4)ccc3[nH]2)c1)c1cnn(Cc2ccc(Cl)cc2)c1 [Example 47, 1-(4-Chloro-benzyl)-1H-pyrazole-4-carboxylic acid {5-[5-(4-fluoro-piperidin-1-ylmethyl)-1H-indol-2-yl]-6-oxo-1,6-dihydro-pyridin-3-yl}-amide]	
	< 100	C[C@H](c1ccccc1)n1cc(C(=O)Nc2c[nH]c(=O)c(-c3cc4cc(CN5CCC(F)CC5)ccc4[nH]3)c2)cn1 [Example 169, 1-((R)-1-Phenyl-ethyl)-1H-pyrazole-4-carboxylic acid {5-[5-(4-fluoro-piperidin-1-ylmethyl)-1H-indol-2-yl]-6-oxo-1,6-dihydro-pyridin-3-yl}-amide]	
	< 100	CCc1cccc(Cn2cc(C(=O)Nc3c[nH]c(=O)c(-c4cc5cc(OCCCN6CCCCC6)ccc5[nH]4)c3)cn2)c1 [Example 134, 1-(3-Ethyl-benzyl)-1H-pyrazole-4-carboxylic acid {6-oxo-5-[5-(3-piperidin-1-yl-propoxy)-1H-indol-2-yl]-1,6-dihydro-pyridin-3-yl}-amide]	
	< 100	CN(CCO)Cc1ccc2[nH]c(-c3cc(C(=O)Nc4cnn(Cc5ccc(F)c(F)c5)c4)c[nH]c3=O)cc2c1 [Example 101, 5-(5-{[(2-hydroxyethyl)-methylamino]-methyl}-1H-indol-2yl)-6-oxo-1,6-dihydropyridine-3-carboxylic acid[1-(3,4-difluorobenzyl)-1H-pyrazol-4-yl]-amide]	
	< 100	Cc1cccc(Cn2cc(NC(=O)c3c[nH]c(=O)c(-c4cc5ccccc5[nH]4)c3)cn2)c1 [Example 4, 5-(1H-Indol-2-yl)-6-oxo-1,6-dihydro-pyridine-3-carboxylic acid[1-(3-methyl-benzyl)-1H-pyrazol-4-yl]-amide]	
	< 100	O=C(Nc1c[nH]c(=O)c(-c2cc3cc(CN4CCOCC4)ccc3[nH]2)c1)c1cnn(Cc2ccc(Cl)cc2)c1 [Example 67, 1-(4-Chloro-benzyl)-1H-pyrazole-4-carboxylic acid [5-(5-morpholin-4-ylmethyl-1H-indol-2-yl)-6-oxo-1,6-dihydro-pyridin-3-yl]-amide]	
